Values quoted from earlier work in patent US6392068B1, “Carborane containing cholesterol, a new type of molecule for targeted boron drug delivery” (The University of Georgia Research Foundation, Inc., priority 1999, dated 2002).

System: tumor cell
Settings: in-vitro; background statement

Na2B12H11 SH [BSH]
retention in the tumor cell: does not stay in the tumor cell but is easily washed out
